# What was measured:
# [1] = system: multiple myeloma (MM) model; experiment: multiple myeloma (MM) model, cells selected for growth in bone; type: in vivo
# Excerpt: FIG. 19 is a representation of the results of generating a multiple myeloma (MM) model, that was created by selecting cells with affinity for growth in bone.
# [2] = system: 32D/p210-Luc cells; experiment: CML model, 32D/p210-Luc cells imaged in vivo; parameters: species or system mice
# Excerpt: FIG. 21 is a representation showing the results of a CML model used to evaluate the ABL-inhibitor AMN107.
# [3] = system: TS(4;11)-LucNeo cells; experiment: in vivo bioluminescence imaging of mice bearing MLL leukemia cell line TS(4;11), drug treatment
# Excerpt: FIG. 15 is a pictorial representation of treatment of mice bearing MLL leukemia cell line TS(4;11) with the FLT3 inhibitor PKC-412.
smiles,measurement,setting,value
Nc1ncnc2c1c(-c1cccc(OCc3ccccc3)c1)cn2C1CC(CN2CCCC2)C1 (stereo not drawn) [ADW],tumor burden,[1]; FIG. 19,reduction of tumor burden
same,survival as compared to untreated control,[1]; FIG. 20,positively correlated with survival
Cc1cn(-c2cc(NC(=O)c3ccc(C)c(Nc4nccc(-c5cccnc5)n4)c3)cc(C(F)(F)F)c2)cn1 [AMN107],tumor cell growth of 32D/p210-Luc cells (quantitative),[2]; FIG. 22,inhibits tumor cell growth
same,efficacy against 32D/p210-Luc cells in vivo (qualitative),"[2]; five animals, nine day assay, FIG. 21",efficacious
CO[C@@H]1[C@H](N(C)C(=O)c2ccccc2)C[C@H]2O[C@]1(C)n1c3ccccc3c3c4c(c5c6ccccc6n2c5c31)C(=O)NC4 [PKC-412],tumor cell size,"[3]; mice bearing TS(4;11) MLL cells, FIG. 16 left graph",reduces tumor cell size
same,bioluminescent flux as compared to controls,"[3]; nude mice, TS(4;11)-LucNeo cells, 150 mg/kg/day over a two week period",constant bioluminescent flux

# From patent US7732658B2, “Composition and method for imaging cells” (Dana Farber Cancer Institute, Inc., priority 2002, dated 2010)
